Patent publication US20210238136A1, “AZETIDINE DERIVATIVE, AND PRODRUG THEREOF” (DAIICHI SANKYO COMPANY, LIMITED, priority 2018, published 2021)
pIC50: −log10 of the molar value.

Tested on: activated T cells (CD4+ T cells from mouse spleen)
Experiment: 3H-thymidine uptake in activated T cells
Type: cell-based, mouse (C57BL/6J)
Settings: T-cell; mouse spleen CD4+ T cells activated with Dynabeads Mouse T-Activator CD3/CD28; read-out: IC50 (3H-thymidine uptake, proliferation of activated T cells)
Experimental: Effect of Test Substance on ^3H-Thymidine Uptake in Activated T Cells
The effect of test substance on ^3H-thymidine uptake by activation was evaluated using T cells from mouse spleen. The spleen was removed from euthanized C57BL/6J mice, and finely sliced, then triturated on a cell strainer (40 μm mesh), and cells were collected by centrifugation. The collected splenocytes were treated with Cold lyser containing 0.17 M NH4Cl for 5 minutes to hemolytically remove red blood cells and then washed. The resulting cells were used as the splenocytes. From the splenocytes, CD4+ T cells were isolated using an EasySep Mouse CD4+ T cell isolation kit (STEMCELL Technologies Inc.). The CD4+ T cells were seeded into 96-well round-bottom plates. To the plates, test substance or Vehicle was added, and Dynabeads Mouse T-Activator CD3/CD28 (Thermo Fisher Scientific Inc.) was added, then the cells were cultured at 37° C. under 5% CO2. After 24 hours of culture, ^3H-Thymidine (PerkinElmer Inc.) diluted with medium was added to each well, then the cells were further cultured at 37° C. under 5% CO2 overnight. To measure ^3H-Thymidine uptake into the nuclei of the cells, the cells were collected into filter plates UniFilter-96 GF/B (PerkinElmer Inc.) using a FilterMate Universal Harvester (PerkinElmer Inc.). The filter plates were placed in a dryer and left still for 2 hours or more. Then, scintillation cocktail MicroScint-O (PerkinElmer Inc.) was added to the plates, and radioactivity was measured with TopCount NXT (PerkinElmer Inc.). With the radioactivity of the test substance-free group set as 100% and the radioactivity of the non-activation group as 0%, the relative value (proliferation rate, % of vehicle) of the radioactivity of each well to which test substance was added was calculated. The value of % of vehicle was incorporated into analysis software Prism (Version 5.0, GraphPad Software), the “Nonlinear Regression Log (inhibitor) vs Reaction Variable Inclination” was selected, and then sigmoid fitting with restrictions of Bottom=0 and Top=100 was performed to calculate 50% inhibitory concentration (IC50).

Compound | pIC50
N[C@@H](Cc1cccc(S(=O)(=O)N2CC(Cc3ccccc3)(c3ccccc3)C2)c1)C(=O)O [Example 16] | 7.17
N[C@@H](Cc1cccc(S(=O)(=O)N2CC(Oc3ccccc3Cl)(c3ccccc3)C2)c1)C(=O)O [Example 7, (S)-2-Amino-3-(3-((3-(2-chlorophenoxy)-3-phenylazetidin-1-yl)sulfonyl)phenyl)propanoic acid] | 8.39
[2H]c1c([2H])c([2H])c(C2(Oc3cccc(F)c3)CN(S(=O)(=O)c3cccc(C[C@H](N)C(=O)O)c3)C2)c([2H])c1[2H] [Example 28] | 8.64
N#Cc1ccccc1OC1(c2ccccc2)CN(S(=O)(=O)c2cccc(C[C@H](N)C(=O)O)c2)C1 [Example 18, (S)-2-Amino-3-(3-((3-(2-cyanophenoxy)-3-phenylazetidin-1-yl)sulfonyl)phenyl)propanoic acid] | 8.54
N[C@@H](Cc1cccc(S(=O)(=O)N2CC(Oc3ccccc3F)(c3ccccn3)C2)c1)C(=O)O [Example 34] | 7.72
N[C@@H](Cc1cccc(S(=O)(=O)N2CC(Oc3ccc(F)cc3)(c3ccc(F)cc3)C2)c1)C(=O)O [Example 6, (S)-2-Amino-3-(3-((3-(4-fluorophenoxy)-3-(4-fluorophenyl)azetidin-1-yl)sulfonyl)phenyl)propanoic acid] | 8.92
Cc1ccc(OC2(c3ccccc3)CN(S(=O)(=O)c3cccc(C[C@H](N)C(=O)O)c3)C2)cc1 [Example 9] | 8.37
N[C@@H](Cc1cccc(S(=O)(=O)N2CC(Oc3cccc(Cl)c3)(c3ccccc3)C2)c1)C(=O)O [Example 3, (S)-2-Amino-3-(3-((3-(3-chlorophenoxy)-3-phenylazetidin-1-yl)sulfonyl)phenyl)propanoic acid] | 8.51
N[C@@H](Cc1cccc(S(=O)(=O)N2CC(Oc3cccc(F)c3)(c3ccccn3)C2)c1)C(=O)O [Example 35] | 7.77
CC1(Oc2ccccc2)CN(S(=O)(=O)c2cccc(C[C@H](N)C(=O)O)c2)C1 [Example 30] | 5.96
N[C@@H](Cc1cccc(S(=O)(=O)N2CC(Oc3ccccc3Br)(c3ccccc3)C2)c1)C(=O)O [Example 5, (S)-2-Amino-3-(3-((3-(2-bromophenoxy)-3-phenylazetidin-1-yl)sulfonyl)phenyl)propanoic acid] | 8.49
N[C@@H](Cc1cccc(S(=O)(=O)N2CC(Oc3ccccc3)(c3ccccc3F)C2)c1)C(=O)O [Example 27] | 8.54
N[C@@H](Cc1cccc(S(=O)(=O)N2CC(OC3CC3)(c3ccccc3)C2)c1)C(=O)O [Example 39] | 6.85
N[C@@H](Cc1cccc(S(=O)(=O)N2CC(Oc3ccc(F)cc3)(c3ccccc3F)C2)c1)C(=O)O [Example 14] | 7.52
N[C@@H](Cc1cccc(S(=O)(=O)N2CC(Oc3ccccc3C(F)(F)F)(c3ccccc3)C2)c1)C(=O)O [Example 2] | 7.82
N[C@@H](Cc1cccc(S(=O)(=O)N2CC(Oc3ccccc3-c3ccccc3Cl)C2)c1)C(=O)O [Example 38] | 7.47
N#Cc1cccc(OC2(c3ccccc3)CN(S(=O)(=O)c3cccc(C[C@H](N)C(=O)O)c3)C2)c1 [Example 20] | 8.52
N[C@@H](Cc1cccc(S(=O)(=O)N2CC(Oc3cccc(Br)c3)(c3ccccc3)C2)c1)C(=O)O [Example 8, (S)-2-Amino-3-(3-((3-(3-bromophenoxy)-3-phenylazetidin-1-yl)sulfonyl)phenyl)propanoic acid] | 8.52
N[C@@H](Cc1cccc(S(=O)(=O)N2CC(Oc3ccc(F)cc3)(c3ccccn3)C2)c1)C(=O)O [Example 43] | 8.07
N[C@@H](Cc1cccc(S(=O)(=O)N2CC(Oc3ccccc3)(c3cccc(F)c3)C2)c1)C(=O)O [Example 26] | 8.60
N[C@@H](Cc1cccc(S(=O)(=O)N2CC(Oc3ccncc3)(c3ccccc3)C2)c1)C(=O)O [Example 23] | 7.80
Cc1ccccc1-c1ccccc1C1CN(S(=O)(=O)c2cccc(C[C@H](N)C(=O)O)c2)C1 [Example 37] | 7.07
